From the supplement of paper PMC10307832

Tests used:
Assay in all cases: relative viability (nuclei count vs DMSO), 5 days (fraction); higher = more cells survive
[1] = test system: NCI-H1755
Outline: (§1)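 Values are medians from duplicate plates. Each reflects relative viability, defined as the nuclei count of treated wells over that of vehicle wells. Lung cancer cell lines in 1536-well plates were pin-tool dosed one day after seeding with one drug alone or with a fixed anchor-drug dose plus five library-drug doses (not always all listed) in √10 steps, then fixed, stained and imaged at 4× after 5 days.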

[2] = test system: NCI-H1651
Outline: as §1

[3] = test system: LCLC-103H
Outline: as §1

[4] = test system: EPLC-272H
Outline: as §1

[5] = test system: NCI-H1355
Outline: as §1

[6] = test system: COR-L 105
Outline: as §1

[7] = test system: HCC-44
Outline: as §1

[8] = test system: NCI-H1975
Outline: as §1

[9] = test system: SW 1573
Outline: as §1

[10] = test system: NCI-H2228
Outline: as §1

[11] = test system: PC-3 [JPC-3]
Outline: as §1

[12] = test system: HARA
Outline: as §1

[13] = test system: NCI-H596
Outline: as §1

[14] = test system: NCI-H2170
Outline: as §1

[15] = test system: NCI-H838
Outline: as §1

[16] = test system: HCC-366
Outline: as §1

[17] = test system: HCC-78
Outline: as §1

[18] = test system: HCC-827
Outline: as §1

[19] = test system: NCI-H1993
Outline: as §1

[20] = test system: NCI-H1793
Outline: as §1

[21] = test system: NCI-H520
Outline: as §1

[22] = test system: LOU-NH91
Outline: as §1

[23] = test system: SK-MES-1
Outline: as §1

[24] = test system: UMC-11
Outline: as §1

[25] = test system: RERF-LC-KJ
Outline: as §1

Nc1cccc2c1CN(C1CCC(=O)NC1=O)C2=O (configuration not stated) [Lenalidomide] + O=C(CCCCCCC(=O)Nc1ccccc1)NO [Vorinostat] (partner 1 µM)
relative viability ([1]; first compound 0.253 µM): 0.78
relative viability ([1]; first compound 0.8 µM): 0.649
relative viability ([1]; first compound 2.53 µM): 0.728
relative viability ([1]; first compound 8 µM): 0.593
relative viability ([2]; first compound 0.253 µM): 0.624
relative viability ([2]; first compound 0.8 µM): 0.471
relative viability ([2]; first compound 2.53 µM): 0.589
relative viability ([2]; first compound 8 µM): 0.579
relative viability ([3]; first compound 0.253 µM): 0.761
relative viability ([3]; first compound 0.8 µM): 0.679
relative viability ([3]; first compound 2.53 µM): 0.818
relative viability ([3]; first compound 8 µM): 0.616
relative viability ([4]; first compound 0.253 µM): 0.481
relative viability ([4]; first compound 2.53 µM): 0.296
relative viability ([4]; first compound 8 µM): 0.451
relative viability ([5]; first compound 0.253 µM): 0.608
relative viability ([5]; first compound 0.8 µM): 0.455
relative viability ([5]; first compound 2.53 µM): 0.707
relative viability ([5]; first compound 8 µM): 0.495
relative viability ([6]; first compound 0.253 µM): 0.682
relative viability ([6]; first compound 0.8 µM): 0.863
relative viability ([6]; first compound 2.53 µM): 0.983
relative viability ([6]; first compound 8 µM): 0.858
relative viability ([7]; first compound 0.253 µM): 1.05
relative viability ([7]; first compound 0.8 µM): 0.926
relative viability ([7]; first compound 2.53 µM): 1.04
relative viability ([7]; first compound 8 µM): 1.08
relative viability ([8]; first compound 0.253 µM): 0.72
relative viability ([8]; first compound 0.8 µM): 0.768
relative viability ([8]; first compound 2.53 µM): 0.736
relative viability ([8]; first compound 8 µM): 0.744
relative viability ([9]; first compound 0.253 µM): 0.456
relative viability ([9]; first compound 0.8 µM): 0.822
relative viability ([9]; first compound 2.53 µM): 0.974
relative viability ([9]; first compound 8 µM): 0.759
relative viability ([10]; first compound 0.253 µM): 0.451
relative viability ([10]; first compound 0.8 µM): 0.505
relative viability ([10]; first compound 2.53 µM): 1.09
relative viability ([10]; first compound 8 µM): 1.12
relative viability ([11]; first compound 0.253 µM): 1.02
relative viability ([11]; first compound 0.8 µM): 0.721
relative viability ([11]; first compound 2.53 µM): 0.903
relative viability ([11]; first compound 8 µM): 0.72
relative viability ([12]; first compound 0.253 µM): 0.61
relative viability ([12]; first compound 2.53 µM): 0.628
relative viability ([12]; first compound 8 µM): 0.512
relative viability ([13]; first compound 0.253 µM): 0.584
relative viability ([13]; first compound 0.8 µM): 0.464
relative viability ([13]; first compound 2.53 µM): 0.689
relative viability ([13]; first compound 8 µM): 0.52
relative viability ([14]; first compound 0.253 µM): 0.883
relative viability ([14]; first compound 0.8 µM): 0.649
relative viability ([14]; first compound 2.53 µM): 0.889
relative viability ([14]; first compound 8 µM): 0.626
relative viability ([15]; first compound 0.253 µM): 0.732
relative viability ([15]; first compound 0.8 µM): 0.692
relative viability ([15]; first compound 2.53 µM): 0.712
relative viability ([15]; first compound 8 µM): 0.697
relative viability ([16]; first compound 0.253 µM): 0.335
relative viability ([16]; first compound 0.8 µM): 0.102
relative viability ([16]; first compound 2.53 µM): 0.479
relative viability ([16]; first compound 8 µM): 0.265
relative viability ([17]; first compound 0.253 µM): 0.447
relative viability ([17]; first compound 0.8 µM): 0.456
relative viability ([17]; first compound 2.53 µM): 0.474
relative viability ([17]; first compound 8 µM): 0.486
relative viability ([18]; first compound 0.253 µM): 1.04
relative viability ([18]; first compound 0.8 µM): 0.763
relative viability ([18]; first compound 2.53 µM): 0.985
relative viability ([18]; first compound 8 µM): 1.06
relative viability ([19]; first compound 0.253 µM): 0.872
relative viability ([19]; first compound 0.8 µM): 0.615
relative viability ([19]; first compound 2.53 µM): 0.962
relative viability ([19]; first compound 8 µM): 0.383
relative viability ([20]; first compound 0.253 µM): 0.739
relative viability ([20]; first compound 2.53 µM): 1.02
relative viability ([20]; first compound 8 µM): 0.35
relative viability ([21]; first compound 0.253 µM): 0.738
relative viability ([21]; first compound 0.8 µM): 0.74
relative viability ([21]; first compound 2.53 µM): 0.731
relative viability ([21]; first compound 8 µM): 0.698
relative viability ([22]; first compound 0.253 µM): 0.928
relative viability ([22]; first compound 0.8 µM): 0.753
relative viability ([22]; first compound 2.53 µM): 0.98
relative viability ([22]; first compound 8 µM): 0.817
relative viability ([23]; first compound 0.253 µM): 0.99
relative viability ([23]; first compound 0.8 µM): 0.881
relative viability ([23]; first compound 2.53 µM): 1.19
relative viability ([23]; first compound 8 µM): 1.06
relative viability ([24]; first compound 0.253 µM): 0.441
relative viability ([24]; first compound 0.8 µM): 0.378
relative viability ([24]; first compound 2.53 µM): 0.428
relative viability ([24]; first compound 8 µM): 0.381
relative viability ([25]; first compound 0.253 µM): 0.574
relative viability ([25]; first compound 0.8 µM): 0.605
relative viability ([25]; first compound 2.53 µM): 0.71
relative viability ([25]; first compound 8 µM): 0.686

Nc1cccc2c1CN(C1CCC(=O)NC1=O)C2=O (configuration not stated) [Lenalidomide] + N=C(N)NC(=N)NCCc1ccccc1 [Phenformin] (partner 250 µM)
relative viability ([1]; first compound 0.253 µM): 0.627
relative viability ([1]; first compound 0.8 µM): 0.615
relative viability ([1]; first compound 2.53 µM): 0.682
relative viability ([1]; first compound 8 µM): 0.536
relative viability ([2]; first compound 0.253 µM): 0.301
relative viability ([2]; first compound 0.8 µM): 0.351
relative viability ([2]; first compound 2.53 µM): 0.493
relative viability ([2]; first compound 8 µM): 0.337
relative viability ([3]; first compound 0.253 µM): 0.364
relative viability ([3]; first compound 0.8 µM): 0.327
relative viability ([3]; first compound 2.53 µM): 0.352
relative viability ([3]; first compound 8 µM): 0.257
relative viability ([4]; first compound 0.253 µM): 0.282
relative viability ([4]; first compound 0.8 µM): 0.341
relative viability ([4]; first compound 2.53 µM): 0.318
relative viability ([4]; first compound 8 µM): 0.224
relative viability ([5]; first compound 0.253 µM): 0.485
relative viability ([5]; first compound 2.53 µM): 0.462
relative viability ([5]; first compound 8 µM): 0.399
relative viability ([6]; first compound 0.253 µM): 0.464
relative viability ([6]; first compound 0.8 µM): 0.523
relative viability ([6]; first compound 2.53 µM): 0.554
relative viability ([6]; first compound 8 µM): 0.513
relative viability ([7]; first compound 0.253 µM): 0.272
relative viability ([7]; first compound 2.53 µM): 0.184
relative viability ([7]; first compound 8 µM): 0.216
relative viability ([8]; first compound 0.253 µM): 0.402
relative viability ([8]; first compound 0.8 µM): 0.35
relative viability ([8]; first compound 2.53 µM): 0.474
relative viability ([8]; first compound 8 µM): 0.336
relative viability ([9]; first compound 0.253 µM): 0.432
relative viability ([9]; first compound 0.8 µM): 0.43
relative viability ([9]; first compound 2.53 µM): 0.347
relative viability ([9]; first compound 8 µM): 0.345
relative viability ([10]; first compound 0.253 µM): 0.273
relative viability ([10]; first compound 0.8 µM): 0.327
relative viability ([10]; first compound 2.53 µM): 0.27
relative viability ([10]; first compound 8 µM): 0.264
relative viability ([11]; first compound 0.253 µM): 0.482
relative viability ([11]; first compound 0.8 µM): 0.432
relative viability ([11]; first compound 2.53 µM): 0.502
relative viability ([11]; first compound 8 µM): 0.511
relative viability ([12]; first compound 0.253 µM): 0.414
relative viability ([12]; first compound 2.53 µM): 0.595
relative viability ([12]; first compound 8 µM): 0.417
relative viability ([13]; first compound 0.253 µM): 0.752
relative viability ([13]; first compound 2.53 µM): 0.911
relative viability ([13]; first compound 8 µM): 0.635
relative viability ([14]; first compound 0.253 µM): 0.47
relative viability ([14]; first compound 0.8 µM): 0.425
relative viability ([14]; first compound 2.53 µM): 0.414
relative viability ([14]; first compound 8 µM): 0.481
relative viability ([15]; first compound 0.253 µM): 0.545
relative viability ([15]; first compound 0.8 µM): 0.541
relative viability ([15]; first compound 2.53 µM): 0.689
relative viability ([15]; first compound 8 µM): 0.468
relative viability ([16]; first compound 0.253 µM): 0.564
relative viability ([16]; first compound 0.8 µM): 0.547
relative viability ([16]; first compound 2.53 µM): 0.691
relative viability ([16]; first compound 8 µM): 0.548
relative viability ([17]; first compound 0.253 µM): 0.825
relative viability ([17]; first compound 0.8 µM): 0.625
relative viability ([17]; first compound 2.53 µM): 0.909
relative viability ([17]; first compound 8 µM): 0.448
relative viability ([18]; first compound 0.253 µM): 0.408
relative viability ([18]; first compound 0.8 µM): 0.425
relative viability ([18]; first compound 2.53 µM): 0.432
relative viability ([18]; first compound 8 µM): 0.437
relative viability ([19]; first compound 0.253 µM): 0.429
relative viability ([19]; first compound 0.8 µM): 0.553
relative viability ([19]; first compound 2.53 µM): 0.551
relative viability ([19]; first compound 8 µM): 0.516
relative viability ([20]; first compound 0.253 µM): 0.384
relative viability ([20]; first compound 2.53 µM): 0.515
relative viability ([20]; first compound 8 µM): 0.344
relative viability ([21]; first compound 0.253 µM): 0.579
relative viability ([21]; first compound 0.8 µM): 0.481
relative viability ([21]; first compound 2.53 µM): 0.658
relative viability ([21]; first compound 8 µM): 0.257
relative viability ([22]; first compound 0.253 µM): 0.681
relative viability ([22]; first compound 0.8 µM): 0.584
relative viability ([22]; first compound 2.53 µM): 0.75
relative viability ([22]; first compound 8 µM): 0.491
relative viability ([23]; first compound 0.253 µM): 0.556
relative viability ([23]; first compound 0.8 µM): 0.678
relative viability ([23]; first compound 2.53 µM): 0.678
relative viability ([23]; first compound 8 µM): 0.773
relative viability ([24]; first compound 0.253 µM): 0.317
relative viability ([24]; first compound 0.8 µM): 0.328
relative viability ([24]; first compound 2.53 µM): 0.389
relative viability ([24]; first compound 8 µM): 0.339
relative viability ([25]; first compound 0.253 µM): 0.403
relative viability ([25]; first compound 0.8 µM): 0.463
relative viability ([25]; first compound 2.53 µM): 0.431
relative viability ([25]; first compound 8 µM): 0.441
